{
  "source": "patent US20250076320A1",
  "about": "“METHOD AND PROGRAM FOR DETECTING ADMINISTERED DRUG, AND DEVICE THEREFOR” (A&T CORPORATION, priority 2023, published 2025)",
  "tested_on": "prothrombin time (blood coagulation, extrinsic pathway)",
  "assay": "Clot waveform analysis with dry PT reagent containing magnetic particles on the CG02N blood coagulation analyzer",
  "settings": "samples receiving administration of rivaroxaban, PT-INR 2.0 or higher (22 samples); inclination from maximal movement level of magnetic particles to 5% attenuation; 25 μl sample; samples not receiving DOAC: −1219.8",
  "text": "When measurement is initiated, apparatus CG02N turns electromagnets at the bottom of the reaction cell on and off, and allows magnetic particles to move in the reaction cell. CG02N observes the movement of the magnetic particles as the amount of change in the scattered light, and analyzes the change with the elapse of time to determine clotting time. When the CG02N analyzer is used, the change in the movement signal of the magnetic particles over time is inversely correlated to the change in the viscosity of the dry reagent. As the clotting reaction advances, the viscosity in the reaction cell increases, and the movement of the magnetic particles becomes slower. The clot waveform is analyzed by determining a difference between the waveform value (scattered light) after a given period of time from the point when an electromagnet is turned on and the waveform value (scattered light) after a given period of time from the point when electromagnet is turned off. Differences in the waveform values are plotted with the elapse of time, and a point at which the waveform value is lowered by a given percentage from the maximal value (also referred to as “peak TOP”) is designated as the end point. The period from the peak TOP to the end point is measured to obtain the measured value (seconds). The term “clotting time” used herein refers to the period from the peak TOP to the end point. […]",
  "data": [
    {"smiles": "O=C(NC[C@H]1CN(c2ccc(N3CCOCC3=O)cc2)C(=O)O1)c1ccc(Cl)s1", "note": "[rivaroxaban]", "values": [
      {"measurement": "Slope of clot waveform, Mean", "value": "−805.9"}
    ]}
  ]
}
